Measured values published in US20240262826A1, “WILD TYPE KIT INHIBITORS” (Blueprint Medicines Corporation, priority 2022, published 2024).

Key:
[1] = target: wild type c-kit (Homo sapiens (Human), UniProt P10721); test: PathScan phospho c-kit (Tyr719) sandwich ELISA in SCF-stimulated M-07e cells (pKIT assay); assay type: cell-based; conditions: ELISA assay (values not marked *)
Outline: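 Serum- and GM-CSF-starved M-07e cells (4 h) pretreated 60 min at 37 °C with an 8-point compound series in duplicate (0.25% DMSO), then stimulated with human SCF (500 ng/mL stock) 10 min at room temperature. Lysate c-kit Tyr719 phosphorylation quantified by sandwich ELISA with TMB read-out; IC50 from 4-parameter logistic fit.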

[2] = target: human P-glycoprotein (P-gp, MDR1) (Homo sapiens (Human), UniProt P08183); test: MDCK-MDR1 cell monolayer drug transport assay (P-gp efflux ratio); assay type: in vitro ADME; conditions: pH 7.4, MDCK-MDR1 cells; for efflux ratio at 2 h, 1 µM: 1 uM concentration of compound, read-out: Pgp Efflux Ratio, 1 uM
human P-glycoprotein (P-gp, MDR1), sequence (P08183 whole entry): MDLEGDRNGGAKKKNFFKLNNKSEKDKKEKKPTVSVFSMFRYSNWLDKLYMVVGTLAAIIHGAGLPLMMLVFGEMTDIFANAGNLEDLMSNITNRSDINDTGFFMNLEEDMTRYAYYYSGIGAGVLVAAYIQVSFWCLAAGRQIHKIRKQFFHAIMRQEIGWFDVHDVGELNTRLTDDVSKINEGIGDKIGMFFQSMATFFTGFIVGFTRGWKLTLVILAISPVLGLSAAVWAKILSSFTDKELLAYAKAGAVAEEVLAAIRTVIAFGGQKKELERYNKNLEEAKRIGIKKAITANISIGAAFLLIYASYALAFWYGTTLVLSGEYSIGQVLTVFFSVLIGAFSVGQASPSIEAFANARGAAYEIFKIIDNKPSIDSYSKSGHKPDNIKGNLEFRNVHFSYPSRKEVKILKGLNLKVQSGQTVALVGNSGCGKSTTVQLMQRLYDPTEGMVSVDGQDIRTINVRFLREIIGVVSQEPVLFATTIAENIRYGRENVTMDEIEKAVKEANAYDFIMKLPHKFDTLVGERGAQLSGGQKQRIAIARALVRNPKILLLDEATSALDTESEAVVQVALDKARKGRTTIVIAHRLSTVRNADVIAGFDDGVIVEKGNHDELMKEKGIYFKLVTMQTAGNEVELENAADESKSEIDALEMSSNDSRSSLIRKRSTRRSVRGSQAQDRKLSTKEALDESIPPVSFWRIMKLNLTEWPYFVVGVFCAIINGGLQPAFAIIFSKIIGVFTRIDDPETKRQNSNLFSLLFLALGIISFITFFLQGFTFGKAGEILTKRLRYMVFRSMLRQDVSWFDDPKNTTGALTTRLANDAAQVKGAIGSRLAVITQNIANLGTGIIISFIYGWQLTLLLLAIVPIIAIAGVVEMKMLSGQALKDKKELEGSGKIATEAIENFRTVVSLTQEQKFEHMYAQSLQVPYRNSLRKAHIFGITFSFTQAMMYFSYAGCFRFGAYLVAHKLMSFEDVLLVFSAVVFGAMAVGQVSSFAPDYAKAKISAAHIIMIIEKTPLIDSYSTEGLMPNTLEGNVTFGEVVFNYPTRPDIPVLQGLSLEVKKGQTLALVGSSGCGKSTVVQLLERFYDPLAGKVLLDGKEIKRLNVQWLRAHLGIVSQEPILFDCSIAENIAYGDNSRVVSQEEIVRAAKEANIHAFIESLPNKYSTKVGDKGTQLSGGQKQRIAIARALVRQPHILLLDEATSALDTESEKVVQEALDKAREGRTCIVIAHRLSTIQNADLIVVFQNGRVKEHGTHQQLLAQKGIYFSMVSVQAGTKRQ
Outline: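 P-gp substrate potential tested in MDCK-MDR1 monolayers on Transwell supports, cultured 4-8 days; monolayers with TEER <42 ohms·cm2 discarded. Transport run in HBSS (10 mM HEPES, pH 7.4) at 37° C with compound working solution at 1 μM.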

wild type c-kit, sequence (P10721 26-976): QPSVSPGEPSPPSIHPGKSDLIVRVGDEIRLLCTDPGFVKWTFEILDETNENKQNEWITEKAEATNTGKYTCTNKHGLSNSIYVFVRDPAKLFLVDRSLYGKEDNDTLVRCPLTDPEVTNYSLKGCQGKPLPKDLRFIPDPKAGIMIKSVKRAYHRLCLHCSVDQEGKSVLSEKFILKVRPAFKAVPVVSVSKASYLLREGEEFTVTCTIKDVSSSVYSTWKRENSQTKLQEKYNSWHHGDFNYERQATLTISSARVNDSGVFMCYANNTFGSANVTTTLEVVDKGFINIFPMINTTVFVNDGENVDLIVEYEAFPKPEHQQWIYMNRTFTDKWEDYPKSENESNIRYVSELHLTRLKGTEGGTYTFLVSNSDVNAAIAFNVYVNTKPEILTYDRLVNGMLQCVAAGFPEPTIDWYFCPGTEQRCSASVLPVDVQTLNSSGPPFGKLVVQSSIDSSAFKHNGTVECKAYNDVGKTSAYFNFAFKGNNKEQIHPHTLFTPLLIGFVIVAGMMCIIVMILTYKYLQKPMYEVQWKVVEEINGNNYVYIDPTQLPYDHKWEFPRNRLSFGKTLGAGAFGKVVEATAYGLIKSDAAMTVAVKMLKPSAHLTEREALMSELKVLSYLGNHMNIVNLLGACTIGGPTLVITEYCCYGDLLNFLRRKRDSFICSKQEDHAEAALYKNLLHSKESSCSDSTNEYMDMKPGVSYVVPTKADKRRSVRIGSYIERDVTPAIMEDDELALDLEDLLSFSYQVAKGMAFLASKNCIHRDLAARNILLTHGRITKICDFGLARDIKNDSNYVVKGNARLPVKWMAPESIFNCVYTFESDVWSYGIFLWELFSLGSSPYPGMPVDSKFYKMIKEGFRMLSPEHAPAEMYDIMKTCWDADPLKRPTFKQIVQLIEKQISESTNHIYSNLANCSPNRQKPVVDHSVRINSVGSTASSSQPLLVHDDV

Row | Structure (SMILES) | IC50 [1] [nM] | efflux ratio at 2 h, 1 µM [2] | efflux ratio at 2 h, 0.1 µM ([2]; 0.1 uM concentration of compound (denoted by **), read-out: Pgp Efflux Ratio)
1 | COC(=O)N1CC(n2nnc(-c3ccc(C)c(NC(=O)c4cnn5ccc(NC[C@H](C)O)cc45)c3)n2)C1 [Example 94, methyl (S)-3-(5-(3-(5-((2-hydroxypropyl)amino)pyrazolo[1,5-a]pyridine-3-carboxamido)-4-methylphenyl)-2H-tetrazol-2-yl)azetidine-1-carboxylate] | 131 | 22.3 | 
2 | Cc1ccc(-c2nnn(C3CC(F)(F)C3)n2)cc1NC(=O)c1cnn2ccc(N3CCC(C)(O)CC3)cc12 [Example 61, N-(5-(2-(3,3-difluorocyclobutyl)-2H-tetrazol-5-yl)-2-methylphenyl)-5-(4-hydroxy-4-methylpiperidin-1-yl)pyrazolo[1,5-a]pyridine-3-carboxamide] | 3.2 | 16.4 | 
3 | Cc1cc(F)c(-c2nnn([C@H]3C[C@@H](C(F)(F)F)C3)n2)cc1NC(=O)c1cnn2ccc(N3CCC(C)(O)CC3)cc12 [Example 109, N-(4-fluoro-2-methyl-5-(2-((1s,3s)-3-(trifluoromethyl)cyclobutyl)-2H-tetrazol-5-yl)phenyl)-5-(4-hydroxy-4-methylpiperidin-1-yl)pyrazolo[1,5-a]pyridine-3-carboxamide] | 4.9 | 15.4 | 
4 | COC(=O)N1CC(n2nnc(-c3ccc(C)c(NC(=O)c4cnn5ccc(NCCOC(C)(C)C)cc45)c3)n2)C1 [Example 93, methyl 3-(5-(3-(5-((2-(tert-butoxy)ethyl)amino)pyrazolo[1,5-a]pyridine-3-carboxamido)-4-methylphenyl)-2H-tetrazol-2-yl)azetidine-1-carboxylate] | 29 | 11.4 | 

The next lines start with the values.

Row | IC50 [1] [nM] | efflux ratio at 2 h, 1 µM [2] | efflux ratio at 2 h, 0.1 µM ([2]; 0.1 uM concentration of compound (denoted by **), read-out: Pgp Efflux Ratio) | Structure (SMILES)
5 | 0.6 | 12.8 |  | Cc1ccc(-c2nnn([C@H]3C[C@@H](C(F)(F)F)C3)n2)cc1NC(=O)c1cnn2ccc(N3CCC(C)(O)CC3)cc12 [Example 122, 5-(4-hydroxy-4-methylpiperidin-1-yl)-N-(2-methyl-5-(2-((1s,3s)-3-(trifluoromethyl)cyclobutyl)-2H-tetrazol-5-yl)phenyl)pyrazolo[1,5-a]pyridine-3-carboxamide or 5-(4-hydroxy-4-methylpiperidin-1-yl)-N-(2-methyl-5-(2-((1r,3r)-3-(trifluoromethyl)cyclobutyl)-2H-tetrazol-5-yl)phenyl)pyrazolo[1,5-a]pyridine-3-carboxamide]
6 | 1.6 | 5.2 |  | COC[C@@](C)(O)Cn1cc(-c2ccn3ncc(C(=O)Nc4cc(-c5nnn(C6CC6)n5)ccc4C)c3c2)cn1 (single isomer, unassigned) [Example 268, (S)-N-(5-(2-cyclopropyl-2H-tetrazol-5-yl)-2-methylphenyl)-5-(1-(2-hydroxy-3-methoxy-2-methylpropyl)-1H-pyrazol-4-yl)pyrazolo[1,5-a]pyridine-3-carboxamide or (R)-N-(5-(2-cyclopropyl-2H-tetrazol-5-yl)-2-methylphenyl)-5-(1-(2-hydroxy-3-methoxy-2-methylpropyl)-1H-pyrazol-4-yl)pyrazolo[1,5-a]pyridine-3-carboxamide]
7 | 3.7 | 5.1 |  | COC[C@@H](O)Cn1cc(-c2ccn3ncc(C(=O)Nc4cc(-c5nnn(C6CC6)n5)c(C)cc4Cl)c3c2)cn1 [Example 252, (S)-N-(2-chloro-5-(2-cyclopropyl-2H-tetrazol-5-yl)-4-methylphenyl)-5-(1-(2-hydroxy-3-methoxypropyl)-1H-pyrazol-4-yl)pyrazolo[1,5-a]pyridine-3-carboxamide]
8 | 0.5 |  | 3.8 | CC(C)(O)Cn1cc(-c2ccn3ncc(C(=O)Nc4cc(-c5nnn(C6CC6)n5)ccc4Cl)c3c2)cn1 [Example 234, N-(2-chloro-5-(2-cyclopropyl-2H-tetrazol-5-yl)phenyl)-5-(1-(2-hydroxy-2-methylpropyl)-1H-pyrazol-4-yl)pyrazolo[1,5-a]pyridine-3-carboxamide]
